{"source": "patent US9663473B2", "about": "(Actelion Pharmaceuticals Ltd, priority 2013, dated 2017)", "note": "Where a name gives a salt, the structure may show the parent alone."}
{"target": "T1, recombinant human ALX receptor (Homo sapiens, UniProt P25090)", "T1 construct": "expressed in transfected cells; host or cells: HEK293 (HEK293-hALXR-Gα16)", "T1 sequence (P25090 1-351)": "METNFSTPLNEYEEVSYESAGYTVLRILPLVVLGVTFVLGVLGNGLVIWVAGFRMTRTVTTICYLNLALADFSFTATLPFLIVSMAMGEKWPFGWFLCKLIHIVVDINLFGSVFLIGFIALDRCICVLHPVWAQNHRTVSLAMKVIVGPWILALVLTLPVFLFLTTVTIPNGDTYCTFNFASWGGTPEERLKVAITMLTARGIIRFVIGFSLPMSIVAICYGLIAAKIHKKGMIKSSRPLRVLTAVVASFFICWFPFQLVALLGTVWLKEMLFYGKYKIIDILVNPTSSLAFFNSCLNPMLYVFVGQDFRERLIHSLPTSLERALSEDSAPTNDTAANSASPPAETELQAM", "experiment": "Intracellular calcium measurements (FLIPR), ALX receptor agonistic activity", "assay_type": "cell-based", "conditions": "HEK293-hALXR-Gα16 cells, Fluo-4 calcium signal, normalized to WKYMVm 10 nM", "experimental": "The ALX receptor agonistic activity of the compounds of formula (I) is determined in accordance with the following experimental method.\nIntracellular Calcium Measurements:\nCells expressing recombinant human ALX receptor and the G-protein Gα16 (HEK293-hALXR-Gα16) were grown to 80% confluency in Growing Medium (GM). Cells were detached from culture dishes with a cell dissociation buffer (Invitrogen, 13151-014), and collected by centrifugation at 1′000 rpm at rt for 5 min in Assay Buffer (AB) (equal parts of Hank's BSS (Gibco, 14065-049) and DMEM without Phenol Red (Gibco, 11880-028)). After 60 min incubation at 37° C. under 5% CO2 in AB supplemented with 1 μM Fluo-4 (AM) (Invitrogen, F14202) and 20 mM HEPES (Gibco, 15630-056), the cells were washed and resuspended in AB. They were then seeded onto 384-well FLIPR assay plates (Greiner, 781091) at 50′000 cells in 70 μl per well and sedimented by centrifugation at 1′000 rpm for 1 min. Stock solutions of test compounds were made up at a concentration of 10 mM in DMSO, and serially diluted in AB to concentrations required for activation dose response curves. WKYMVm (Phoenix Peptides) was used as a reference agonist. A FLIPR Tetra instrument (Molecular Devices) was operated according to the manufacturer's standard instructions, adding 4 μl of test compound dissolved at 10 mM in DMSO and diluted prior to the experiment in assay buffer to obtain the desired final concentration. Changes in fluorescence were monitored before and after the addition of test compounds at lex=488 nm and lem=540 nm. Emission peak values above base level after compounds addition were exported after base line subtraction. Values were normalized to high-level control (WKYMVm compound, 10 nM final concentration) after subtraction of the base line value (AB addition).", "units": {"EC50": "nM"}}
{"molecule": "COc1ccc(C[C@@H](NC(=O)NCCc2ccc(C)cc2)c2nc3ccccc3[nH]2)cc1", "note": "[Example 66, (R)-1-(1-(1H-Benzo[d]imidazol-2-yl)-2-(4-methoxyphenyl)ethyl)-3-(4-methylphenethyl)urea hydrochloride]", "EC50": 438}
{"molecule": "O=C(N[C@H](Cc1ccc(C(F)(F)F)cc1)c1nc2cc(F)ccc2[nH]1)N[C@H]1CC[C@H](O)CC1", "note": "[Example 265, 1-((R)-1-(5-Fluoro-1H-benzo[d]imidazol-2-yl)-2-(4-(trifluoromethyl)phenyl)ethyl)-3-(trans-4-hydroxycyclohexyl)urea]", "EC50": 4.7}
{"molecule": "COc1ccc(C[C@@H](NC(=O)NCc2ccccc2OC)c2nc3ccccc3[nH]2)cc1", "note": "[Example 137]", "EC50": 726}
{"molecule": "O=C(NC(Cc1ccc(Br)c(F)c1)c1nc2ccccc2[nH]1)N[C@H]1CC[C@H](O)CC1", "note": "(single isomer, unassigned; ent-2) [Example 262, 1-(1-(1H-Benzo[d]imidazol-2-yl)-2-(4-bromo-3-fluorophenyl)ethyl)-3-(trans-4-hydroxycyclohexyl)urea (ent-2)]", "EC50": 11}
{"molecule": "COc1ccc(C[C@@H](NC(=O)NCc2ccccc2C#N)c2nc3ccccc3[nH]2)cc1", "note": "[Example 211, (R)-1-(1-(1H-Benzo[d]imidazol-2-yl)-2-(4-methoxyphenyl)ethyl)-3-(2-cyanobenzyl)urea]", "EC50": 167}
{"molecule": "COc1ccc(C[C@@H](NC(=O)N[C@H]2CC[C@H](C(=O)OC)CC2)c2nc3ccccc3[nH]2)cc1", "note": "[Example 224, trans-Methyl 4-(3-((R)-1-(1H-benzo[d]imidazol-2-yl)-2-(4-methoxyphenyl)ethyl)ureido)cyclohexanecarboxylate]", "EC50": 8.2}
{"molecule": "COc1ccc(CNC(=O)N[C@H](Cc2ccc(OC)cc2)c2nc3ccccc3[nH]2)cc1", "note": "[Example 387, (R)-1-(1-(1H-Benzo[d]imidazol-2-yl)-2-(4-methoxyphenyl)ethyl)-3-(4-methoxybenzyl)urea]", "EC50": 1370}
{"molecule": "COc1ccc(C[C@@H](NC(=O)N[C@H]2CCc3ccccc32)c2nc3ccccc3[nH]2)cc1", "note": "[Example 20, 1-((R)-1-(1H-Benzo[d]imidazol-2-yl)-2-(4-methoxyphenyl)ethyl)-3-((S)-2,3-dihydro-1H-inden-1-yl)urea]", "EC50": 712}
{"molecule": "COc1ccc(CC(NC(=O)Nc2ccnn2C(C)(C)C)c2nc3ccccc3[nH]2)cc1", "note": "(stereo not shown) [Example 414, 1-(1-(1H-benzo[d]imidazol-2-yl)-2-(4-methoxyphenyl)ethyl)-3-(1-(tert-butyl)-1H-pyrazol-5-yl)urea]", "EC50": 30}
{"molecule": "COc1ccc(C[C@@H](NC(=O)NCc2ccncc2)c2nc3ccccc3[nH]2)cc1", "note": "[Example 288, (R)-1-(1-(1H-Benzo[d]imidazol-2-yl)-2-(4-methoxyphenyl)ethyl)-3-(pyridin-4-ylmethyl)urea]", "EC50": 853}
{"molecule": "COc1ccc(C[C@@H](NC(=O)NC2CCCCC2C)c2nc3ccccc3[nH]2)cc1", "note": "(stereo partly drawn) [Example 23, 1-((R)-1-(1H-Benzo[d]imidazol-2-yl)-2-(4-methoxyphenyl)ethyl)-3-(2-methylcyclohexyl)urea]", "EC50": 124}
{"molecule": "COc1ccc(C[C@@H](NC(=O)N[C@H]2CCN(C(=O)OC(C)(C)C)C2)c2nc3ccccc3[nH]2)cc1", "note": "[Example 119, (S)-tert-Butyl 3-(3-((R)-1-(1H-benzo[d]imidazol-2-yl)-2-(4-methoxyphenyl)ethyl)ureido)pyrrolidine-1-carboxylate]", "EC50": 539}
{"molecule": "COC(=O)N1CCC(NC(=O)N[C@H](Cc2ccc(OC)cc2)c2nc3ccccc3[nH]2)C1", "note": "(stereo partly drawn) [Example 158, Methyl 3-(3-((R)-1-(1H-benzo[d]imidazol-2-yl)-2-(4-methoxyphenyl)ethyl)ureido)pyrrolidine-1-carboxylate]", "EC50": 158}
{"molecule": "COc1ccc(CC(NC(=O)Nc2ccnn2-c2ccc(C)cc2)c2nc3ccccc3[nH]2)cc1", "note": "(stereo not shown) [Example 420, 1-(1-(1H-benzo[d]imidazol-2-yl)-2-(4-methoxyphenyl)ethyl)-3-(1-(p-tolyl)-1H-pyrazol-5-yl)urea]", "EC50": 207}
{"molecule": "(R)-tert-Butyl 4-((3-(1-(1H-benzo[d]imidazol-2-yl)-2-(4-methoxyphenyl)ethyl)ureido)methyl)piperidine-1-carboxylate [Example 106]", "EC50": 538}
{"molecule": "COc1ccc(C[C@@H](NC(=O)NC2CCN(C3CCCCC3)CC2)c2nc3ccccc3[nH]2)cc1", "note": "[Example 90, (R)-1-(1-(1H-Benzo[d]imidazol-2-yl)-2-(4-methoxyphenyl)ethyl)-3-(1-cyclohexylpiperidin-4-yl)urea]", "EC50": 23}
{"molecule": "COc1ccc(C[C@@H](NC(=O)N[C@@H]2CNC[C@@H]2F)c2nc3ccccc3[nH]2)cc1", "note": "(relative stereo) [Example 185, 1-((R)-1-(1H-Benzo[d]imidazol-2-yl)-2-(4-methoxyphenyl)ethyl)-3-((3R*,4S*)-4-fluoropyrrolidin-3-yl)urea]", "EC50": 143}
{"molecule": "COc1ccc(C[C@@H](NC(=O)NC2CCCN(CC(F)F)C2)c2nc3ccccc3[nH]2)cc1", "note": "(stereo partly drawn) [Example 186, 1-((R)-1-(1H-Benzo[d]imidazol-2-yl)-2-(4-methoxyphenyl)ethyl)-3-(-1-(2,2-difluoroethyl)piperidin-3-yl)urea]", "EC50": 29}
{"molecule": "COc1ccc(C[C@@H](NC(=O)NC2CCCCC2)c2nc3ccccc3[nH]2)cc1", "note": "[Example 17, (R)-1-(1-(1H-Benzo[d]imidazol-2-yl)-2-(4-methoxyphenyl)ethyl)-3-cyclohexylurea hydrochloride]", "EC50": 47}
{"molecule": "COc1ccc(C[C@@H](NC(=O)NC2(c3ccc(F)cc3)CC2)c2nc3ccccc3[nH]2)cc1", "note": "[Example 341, (R)-1-(1-(1H-Benzo[d]imidazol-2-yl)-2-(4-methoxyphenyl)ethyl)-3-(1-(4-fluorophenyl)cyclopropyl)urea]", "EC50": 397}
{"molecule": "COc1ccc(CC(NC(=O)N[C@H]2CC[C@H](O)CC2)c2nc3ccccc3[nH]2)c(F)c1F", "note": "(single isomer, unassigned; ent-1) [Example 365, 1-(1-(1H-Benzo[d]imidazol-2-yl)-2-(2,3-difluoro-4-methoxyphenyl)ethyl)-3-(trans-4-hydroxycyclohexyl)urea (ent-1)]", "EC50": 1.7}
{"molecule": "CC1(O)CCC(NC(=O)NC(Cc2ccc(Br)cc2F)c2nc3ccccc3[nH]2)CC1", "note": "(single isomer, unassigned; ent-1) [Example 264, 1-(1-(1H-Benzo[d]imidazol-2-yl)-2-(4-bromo-2-fluorophenyl)ethyl)-3-(trans-4-hydroxy-4-methylcyclohexyl)urea (ent-1)]", "EC50": 9}
{"molecule": "COc1ccc(C[C@@H](NC(=O)N[C@H]2CC[C@H](O)C2)c2nc3ccccc3[nH]2)cc1", "note": "(relative stereo) [Example 172, 1-((R)-1-(1H-Benzo[d]imidazol-2-yl)-2-(4-methoxyphenyl)ethyl)-3-((1 S*,3S*)-3-hydroxycyclopentyl)urea]", "EC50": 15}
{"molecule": "COc1ccc(C[C@@H](NC(=O)N[C@@H]2CCCC[C@@H]2O)c2nc3ccccc3[nH]2)cc1", "note": "(relative stereo) [Example 145, 1-((R)-1-(1H-Benzo[d]imidazol-2-yl)-2-(4-methoxyphenyl)ethyl)-3-((1R*,2S*)-2-hydroxycyclohexyl)urea]", "EC50": 62}
{"molecule": "COc1ccc(C[C@@H](NC(=O)NC(c2ccccn2)C(F)(F)F)c2nc3ccccc3[nH]2)cc1", "note": "(stereo partly drawn) [Example 292, 1-((R)-1-(1H-Benzo[d]imidazol-2-yl)-2-(4-methoxyphenyl)ethyl)-3-(2,2,2-trifluoro-1-(pyridin-2-yl)ethyl)urea]", "EC50": 81}
{"molecule": "COc1ccc(CC(NC(=O)N[C@H]2CC[C@H](O)CC2)c2nc3ccc(Br)cc3[nH]2)cc1", "note": "(relative stereo) [Example 424, 1-(1-(6-bromo-1H-benzo[d]imidazol-2-yl)-2-(4-methoxyphenyl)ethyl)-3-(trans-4-hydroxycyclohexyl)urea]", "EC50": 0.8}
{"molecule": "COc1ccc(C[C@@H](NC(=O)NCc2cccnc2COC(C)C(F)(F)F)c2nc3ccccc3[nH]2)cc1", "note": "(stereo partly drawn) [Example 216, 1-((R)-1-(1H-Benzo[d]imidazol-2-yl)-2-(4-methoxyphenyl)ethyl)-3-((2-(((1,1,1-trifluoropropan-2-yl)oxy)methyl)pyridin-3-yl)methyl)urea]", "EC50": 2.1}
{"molecule": "COc1ccc(C[C@@H](NC(=O)NCc2nc(C(C)(F)F)co2)c2nc3ccccc3[nH]2)cc1", "note": "[Example 423, (R)-1-(1-(1H-benzo[d]imidazol-2-yl)-2-(4-methoxyphenyl)ethyl)-3-((4-(1,1-difluoroethyl)oxazol-2-yl)methyl)urea]", "EC50": 565}
